Reference: patent EP4516309A1, “CRHR1 AGONISTS FOR USE IN THE TREATMENT OF SOCIAL ANXIETY DISORDERS” (Consejo Superior de Investigaciones Cientificas, priority 2023, dated 2025)

What was measured:
[1] = target: T1, excitatory DREADD (Homo sapiens, UniProt P20309, A239G/Y149C); test: Repetitive social presentation test with chemogenetic activation of ILA CRH cells; format: in vivo, CRH-Cre mice; settings: CNO; excitatory DREADD in ILA CRH neurons
T1 construct: host or cells: ILA CRH+ neurons of CRH-Cre mice, Cre-dependent AAV2/5 transduction in vivo
T1 sequence (P20309 whole entry Y149C/A239G): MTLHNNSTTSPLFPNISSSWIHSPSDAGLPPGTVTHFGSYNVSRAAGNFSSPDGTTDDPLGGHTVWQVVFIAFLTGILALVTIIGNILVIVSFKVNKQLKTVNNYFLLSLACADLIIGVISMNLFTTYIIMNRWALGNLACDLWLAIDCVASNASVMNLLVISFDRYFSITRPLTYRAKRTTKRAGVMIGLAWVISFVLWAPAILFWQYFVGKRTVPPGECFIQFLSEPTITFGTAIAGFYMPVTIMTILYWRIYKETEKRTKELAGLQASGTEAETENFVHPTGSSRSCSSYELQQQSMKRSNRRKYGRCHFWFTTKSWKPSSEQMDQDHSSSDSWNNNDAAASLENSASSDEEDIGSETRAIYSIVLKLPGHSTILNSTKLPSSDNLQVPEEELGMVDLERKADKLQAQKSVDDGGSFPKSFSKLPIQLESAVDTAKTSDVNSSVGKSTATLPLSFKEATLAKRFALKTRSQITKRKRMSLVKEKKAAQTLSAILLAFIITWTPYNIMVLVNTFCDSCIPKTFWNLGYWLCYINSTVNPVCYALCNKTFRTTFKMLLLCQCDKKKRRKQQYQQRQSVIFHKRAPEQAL
Description: (§1) Injection coordinates were the following (in mm from Bregma): AP: 1.65, ML: ±0.1, DV: -2.6. Injections were done bilaterally with 100 nl injected per site. AAV2/DJ hSyn.FLEX.mGFP.2A.Synatophysin-mRuby (Addgene #71760 prepared by the Stanford University vector core #1930), AAV2/8 hSyn.DIO.hM4D(Gi)-mCherry (Addgene #44362-AAV8), AAV2/8 hSyn.DIO.mCherry (Addgene #50459-AAV8), AAV2/5-hSyn-DIO-hM3D(Gq)-mCherry (Addgene, #44361-AAV5), AAV2/5 hsyn.DIO.mCherry (Addgene #50459-AAV5), AAV2/1 syn.FLEX.GCaMP6f.WPRE.SV40 (Addgene #100833-AAV1), AAV2/9 CMV-DIO-(mCherry-U6)-shRNA(anti-Crh) (VTA brain), AAV2/9 CMV-DIO-(mCherry-U6)-shRNA(scrambled) (VTA brain), AAV2/9 hSyn.FLEX.dsRed-shRNA(Vgat) (Addgene #67845), AAV 2/9 hSyn-flex-dsRed-shRNA(scrambled) (Addgene #71383), AAV2/2 CAG.FLEX.ArchT-tdTomato (Addgene #28305 prepared by the University of North Carolina vector core) and AAV2/2 CAG.FLEX.tdTomato (Addgene #28306 prepared by the University of North Carolina vector core) were injected into the ILA of CRH-Cre mice. Viruses expressed for a minimum of 2 weeks.
(§2) Repetitive social presentation test. […] Films were scored offline for social interaction by a trained observer blind to the experimental condition. Sniffing of any part of the body, allo-grooming and close following counted as social interaction. […]

[2] = target: T2, inhibitory DREADD (Homo sapiens, UniProt P08173, A203G/Y113C); test: Repetitive social presentation test with chemogenetic silencing of ILA CRH cells; format: in vivo, CRH-Cre mice; settings: CNO; iDREADD in ILA CRH cells
T2 construct: host or cells: ILA CRH+ neurons of CRH-Cre mice, Cre-dependent AAV2/8 transduction in vivo
T2 sequence (P08173 1-479 Y113C/A203G): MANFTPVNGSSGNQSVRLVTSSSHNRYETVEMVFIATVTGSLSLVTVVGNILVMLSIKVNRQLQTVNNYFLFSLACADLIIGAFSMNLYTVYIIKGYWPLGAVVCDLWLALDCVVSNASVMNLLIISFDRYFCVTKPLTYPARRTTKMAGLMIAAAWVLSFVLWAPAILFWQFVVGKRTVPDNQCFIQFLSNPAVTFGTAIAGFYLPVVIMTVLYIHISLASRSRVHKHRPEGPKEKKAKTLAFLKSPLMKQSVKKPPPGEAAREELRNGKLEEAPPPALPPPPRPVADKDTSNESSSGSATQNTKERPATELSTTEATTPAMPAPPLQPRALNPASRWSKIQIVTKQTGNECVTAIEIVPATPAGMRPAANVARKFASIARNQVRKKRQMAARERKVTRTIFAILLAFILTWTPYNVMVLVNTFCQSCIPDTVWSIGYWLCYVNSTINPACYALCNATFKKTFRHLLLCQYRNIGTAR
Description: as §1, §2

With `C[N+]1([O-])CCN(C2=Nc3cc(Cl)ccc3Nc3ccccc32)CC1` [CNO, clozapine N-oxide] the “decrease in social interaction” value [1] was “slightly facilitated” and the “interaction time during the repeated presentations” value [2] was “showed no decrease in interaction time”.
